SMILES strings stand for the structures. Square brackets hold non-standard residues; d marks the D form. Peptide text beside a SMILES is read from it. Dmt = Cc1cc(O)cc(C)c1C[C@H](N)C(=O)O; Orn = NCCC[C@H](N)C(=O)O

What all share (type): in vivo
The subject of one assay is DMD KO rabbits. In words: Body weight and survival in DMD KO rabbit model. Particulars: treated DMD KO rabbits vs untreated control group of DMD KO rabbits; 0.5 to 5 mg/kg once daily i.p., approximately 3-5 months. The source says: Rabbits: The DMD KO rabbits used in this study will be obtained from the Laboratory Animal Center of Jilin University or prepared as described in Sui et al., Disease Models & Mechanisms 11 (2018). […] New Zealand rabbits (WT) will be used as controls.
Body Weight & Survival Curve: The body weight of age- and sex-matched WT and DMD KO rabbits will be measured biweekly. All data will be expressed as the mean±s.e.m., and a minimum of three individual animals of each genotype will be used in all experiments.
Study Design: At approximately 3-4 weeks of age, rabbits will be administered peptide (or a mixture of peptides) dissolved in sterile saline in dose(s) ranging from 0.5 to 5 mg/kg, once daily via intraperitoneal (i.p.) injection. The control group will be given placebo (sterile saline). Rabbits will be treated daily with peptide (or a mixture of peptides) or saline vehicle control, with treatment lasting approximately 3-5 months. For example, the peptide used could be a peptide of Formula A-1 (i.e. H-D-Arg-2′6′-Dmt-Lys-Phe-NH2). Echocardiograms will be collected monthly until animals are approximately 4-6 months of age or end of life. At the time of death, tissues will be harvested and variables described above will be collected.

The next assay has as its system D2-mdx mice. Briefly: Echocardiography in D2-mdx mouse model. Particulars: treated vs untreated D2-mdx mice; daily IP 1.0 or 5.0 mg/kg for 10-15 weeks. How it is done:
Animals and Care: The DBA2 (a.k.a. D2-mdx) congenic strain of mdx mouse will be used for these studies. DBA/2J mice will be used as the wildtype control group. Animals will be obtained from appropriate sources (e.g. Jackson Labs). Animals will be housed at a density of up to five males or five females per cage under specific pathogen-free conditions in rooms with a 12-h light/12-h dark cycle at a temperature of 18-23° C. and 40-60% humidity. All experiments involving mice in this study will be performed in accordance with all applicable laws and regulations.
Echocardiography: In order to assess the cardiac function of mice in vivo, echocardiography will be performed on sedated mice. Mice will first be anesthetized (e.g. with 5% isoflurane mixed with 100% oxygen at 1.0 1/min flow) and then maintained under anesthesia (e.g. with 1.5% isoflurane/oxygen flow. Ophthalmic ointment can be placed on the eyes of the animals to prevent drying of the cornea while the mouse was anesthetized and tested. After anesthetic induction, the animals will be placed on a thermostatically controlled heated platform, where anesthesia can be maintained by delivery through a close-fitting facemask. A heating lamp can also be used to keep the heart rate and body temperature constant at physiological status during echocardiography.
During the examination, the animal’s heart rate will be monitored through the use of an electrocardiograph. The mouse’s heart rate and body temperature will be monitored continuously during the scanning. Echocardiography will be performed using an appropriate apparatus (e.g. Vevo770 ultrasound machine (VisualSonics, Toronto, Canada). The 2-D (B-mode), M-mode and Doppler images will be acquired from a modified parasternal long axis view, parasternal short axis view, suprasternal notch view and apical three-chamber view. The heart rate (BPM), fractional shortening, EF, stroke volume and cardiac output will be obtained for cardiac function assessment using measurements from the modified parasternal short axis view in the M-mode. Qualitative and quantitative measurements will be recorded using offline workstation software, and post-imaging analysis will be performed.
Study Design • 1. N=40-60 mice total assigned to following groups • a. Wildtype control - untreated, n=10-15 • b. mdx, vehicle treated, n=10-15 • c. mdx, daily IP elamipretide 1.0 mg/kg, n=10-15 • d. mdx, daily IP elamipretide 5.0 mg/kg, n=10-15 • 2. Dosing to begin at 4-6 weeks of age and continue for 10-15 weeks • a. Weekly retroorbital eye bleeds will be taken to provide serum for biomarker analysis • 3. In-life endpoints • a. Weekly body weight will be taken • b. Measurements of weekly voluntary wheel running will be determined • i. Total distance (m) • ii. Normalized distance (m/kg) • c. Echocardiogram (at least at week 18 & end of study but possibly more often, including possibly bi-monthly). The following parameters will be accessed. • i. Ejection fraction (%) • ii. Fractional shortening (%) • iii. Stroke volume (uL) • iv. Cardiac output (mL) • v. Heart rate (bpm) • 4. Endpoints post-necropsy • a. Serum analysis for creatine kinase • b. Histology of heart and inflammation and fibrosis

Assay [1] relates to Subjects suspected of having or diagnosed as having DMD or BMD. In words: Treatment of cardiomyopathy in human subjects diagnosed with muscular dystrophy. The following applies: daily subcutaneous 0.5-5.0 mg/kg/day or weekly intravenous 0.05-1.0 mg/kg/hr. for up to 4 hours. The procedure: Subjects suspected of having or diagnosed as having DMD or BMD receive daily subcutaneous administration of H-D-Arg-2′6′-Dmt-Lys-Phe-NH2 or H-D-Arg-2′6′-Dmt-Lys-Phe-OH (e.g. with 0.5-5.0 mg/kg/day). Alternatively, subjects suspected of having or diagnosed as having DMD or BMD receive weekly intravenous administration of H-D-Arg-2′6′-Dmt-Lys-Phe-NH2 or H-D-Arg-2′6′-Dmt-Lys-Phe-OH (e.g. with 0.05-1.0 mg/kg/hr. for up to 4 hours). In some cases, the subjects could be co-administered a drug known to increase or correct the production of dystrophin in the subject, such as a phosphorodiamidate morpholino oligomer (PMO) such as Eteplirsen (Exondys 51®), Golodirsen (Vyondys 53™) or Casimersen (Amondys 45™) or a PPMO. Subjects will be regularly evaluated (e.g., weekly, bi-weekly, monthly, etc.) for the presence and/or severity of signs and symptoms of cardiomyopathy associated with DMD or BMD including, but not limited to, impaired left ventricular dynamics, e.g., reduced ejection fraction, reduced shortening fraction, reduced stroke volume, and/or reduced cardiac output, and elevated levels serum biomarkers associated with myocardial fibrosis, such as, e.g., elevated levels of carboxy terminal peptide of procollagen type I (PICP) and/or amino terminal propeptide of procollagen type III. […]

Assay [2] relates to Subjects suspected of having or diagnosed as having DMD or BMD and taking corticosteroids and/or Eteplirsen, Golodirsen or Casimersen. Briefly: Treatment of cardiomyopathy in human subjects with DMD or BMD taking corticosteroids and/or Eteplirsen, Golodirsen or Casimersen. The following applies: for signs or symptoms of cardiomyopathy associated with DMD or BMD: human subjects taking corticosteroids and/or Eteplirsen, Golodirsen or Casimersen, daily subcutaneous 0.5-5.0 mg/kg/day or weekly intravenous 0.05-1.0 mg/kg/hr. for up to 4 hours; for effect of combination with corticosteroids and/or Eteplirsen, Golodirsen or Casimersen on signs or symptoms of cardiomyopathy: human subjects, compared to peptide alone, or corticosteroids and/or Eteplirsen, Golodirsen or Casimersen alone. How it is done:
Subjects suspected of having or diagnosed as having DMD or BMD and taking corticosteroids and/or Eteplirsen (Exondys 51®), Golodirsen (Vyondys 53™)or Casimersen (Amondys 45™) are separately, sequentially, or simultaneously subcutaneously administered a daily dose of H-D-Arg-2′6′-Dmt-Lys-Phe-NH2 or H-D-Arg-2′6′-Dmt-Lys-Phe-OH (e.g. with 0.5-5.0 mg/kg/day) or a weekly intravenous administration of H-D-Arg-2′6′-Dmt-Lys-Phe-NH2 or H-D-Arg-2′6′-Dmt-Lys-Phe-OH (e.g. with 0.05-1.0 mg/kg/hr. for up to 4 hours). Subjects will be regularly evaluated (e.g., weekly, bi-weekly, monthly, etc.) for the presence and/or severity of signs and symptoms of cardiomyopathy associated with DMD or BMD including, but not limited to, impaired left ventricular dynamics, e.g., reduced ejection fraction, reduced shortening fraction, reduced stroke volume, and/or reduced cardiac output, and elevated levels serum biomarkers associated with myocardial fibrosis, such as, e.g., elevated levels of carboxy terminal peptide of procollagen type I (PICP) and/or amino terminal propeptide of procollagen type III. Treatments are maintained at least until such a time as one or more signs or symptoms of cardiomyopathy associated with DMD or BMD are ameliorated or eliminated. The study may be conducted in a randomized withdrawal trial (e.g. randomized, double-blind, placebo-controlled withdrawal trial) to assess the impact of the peptide on the subjects followed by the impact of its withdrawal relative to a control group still receiving the peptide.

Turning to `Cc1cc(O)cc(C)c1C[C@H](NC(=O)[C@H](N)CCCNC(=N)N)C(=O)N[C@@H](CCCCN)C(=O)N[C@@H](Cc1ccccc1)C(N)=O` [Compound A-1, H-D-Arg-2′6′-Dmt-Lys-Phe-NH2] (H-[dR][Dmt]KF-NH2), the lifespan entry in the assay on DMD KO rabbits is recorded as “statistically significant increase in lifespan”. Also, in the assay on D2-mdx mice, the cardiac output entry was “higher” and the “fractional shortening (FS)” value is “higher”. In assay [1], the “signs or symptoms of cardiomyopathy associated with DMD or BMD” value (“signs or symptoms … with DMD or BMD” for short) was “reduced severity or elimination”. For the same compound, in assay [2], the “signs or symptoms … with DMD or BMD” value was “delayed or reduced severity or elimination” and the “effect of combination with corticosteroids and/or Eteplirsen, Golodirsen or Casimersen on signs or symptoms of cardiomyopathy” value is “synergistic effects”.

In the case of `Cc1cc(O)cc(C)c1C[C@H](NC(=O)[C@H](N)CCCNC(=N)N)C(=O)N[C@@H](CCCCN)C(=O)N[C@@H](Cc1ccccc1)C(=O)O` [Compound A-2, H-D-Arg-2′6′-Dmt-Lys-Phe-OH] (H-[dR][Dmt]KF-OH), the lifespan result in the assay on DMD KO rabbits is listed as “statistically significant increase in lifespan”. In the assay on D2-mdx mice, the cardiac output result was “higher” and the “fractional shortening (FS)” value was “higher”. Further, in assay [1], the “signs or symptoms … with DMD or BMD” value was “reduced severity or elimination”. Also, in assay [2], the “signs or symptoms … with DMD or BMD” value is recorded as “delayed or reduced severity or elimination” and the “effect of combination with corticosteroids and/or Eteplirsen, Golodirsen or Casimersen on signs or symptoms of cardiomyopathy” value is reported as “synergistic effects”.

Take `Cc1cc(O)cc(C)c1C[C@H](NC(=O)[C@H](N)CCCNC(=N)N)C(=O)N[C@@H](CCCNC(=N)N)C(=O)N[C@@H](Cc1ccccc1)C(N)=O` [Compound A-3] (H-[dR][Dmt]RF-NH2): the lifespan entry with DMD KO rabbits was “statistically significant increase in lifespan”. Besides, in the assay with D2-mdx mice, the cardiac output result is listed as “higher” and the “fractional shortening (FS)” value was “higher”.

On to `Cc1cc(O)cc(C)c1C[C@H](NC(=O)[C@H](N)CCCNC(=N)N)C(=O)N[C@@H](CCCNC(=N)N)C(=O)N[C@@H](Cc1ccccc1)C(=O)O` [Compound A-4] (H-[dR][Dmt]RF-OH), for which the lifespan result with DMD KO rabbits is reported as “statistically significant increase in lifespan”. In the assay on D2-mdx mice, the cardiac output result is “higher” and the “fractional shortening (FS)” value is reported as “higher”.

With `Cc1cc(O)cc(C)c1C[C@H](NC(=O)[C@H](N)CCCNC(=N)N)C(=O)N[C@@H](CCCN)C(=O)N[C@@H](Cc1ccccc1)C(N)=O` [Compound A-5] (H-[dR][Dmt][Orn]F-NH2), in the assay with DMD KO rabbits, the lifespan result is recorded as “statistically significant increase in lifespan”. In the assay on D2-mdx mice, the cardiac output entry is “higher” and the “fractional shortening (FS)” value is “higher”.

For the compound `Cc1cc(O)cc(C)c1C[C@H](NC(=O)[C@H](N)CCCNC(=N)N)C(=O)N[C@@H](CCCN)C(=O)N[C@@H](Cc1ccccc1)C(=O)O` [Compound A-6] (H-[dR][Dmt][Orn]F-OH), the lifespan entry in the assay on DMD KO rabbits is “statistically significant increase in lifespan”. Besides, in the assay with D2-mdx mice, the cardiac output entry is “higher” and the “fractional shortening (FS)” value was “higher”.

Take `N=C(N)NCCC[C@@H](N)C(=O)N[C@@H](Cc1ccc(O)cc1)C(=O)N[C@@H](CCCCN)C(=O)N[C@@H](Cc1ccccc1)C(N)=O` [Compound A-7] (H-[dR]YKF-NH2): in the assay with DMD KO rabbits, the lifespan result is “statistically significant increase in lifespan”. In the assay on D2-mdx mice, the cardiac output result was “higher” and the “fractional shortening (FS)” value is “higher”.

`N=C(N)NCCC[C@@H](N)C(=O)N[C@@H](Cc1ccc(O)cc1)C(=O)N[C@@H](CCCCN)C(=O)N[C@@H](Cc1ccccc1)C(=O)O` [Compound A-8] (H-[dR]YKF-OH): the lifespan entry with DMD KO rabbits is listed as “statistically significant increase in lifespan”. Also, in the assay with D2-mdx mice, the cardiac output entry was “higher” and the “fractional shortening (FS)” value is “higher”.
